Data from patent publication US20090226393A1 (NITTO DENKO CORPORATION, priority 2008, published 2009).

What was measured:
[1] = female, nu/nu, mouse, in vivo, iv, 40 mg/kg
[2] = mouse, in vivo
[3] = Biodistribution in different organs (drug accumulation study); settings: 48 hours post administration
Method: Plasma, tumor and samples of the major organ were collected at intervals out to 340 hours. […] Pharmacokinetic parameters were estimated using WinNonlin software using a non-compartment model.
For each drug, groups of 6 mice were anesthetized at various time points and 0.3 ml of blood, obtained by cardiac puncture, was collected into heparinized tubes. Thereafter, mice were sacrificed before recovering from anesthesia and the following tissues were harvested and frozen from each animal: each of the 4 tumors, lung, liver, spleen, both kidneys, skeletal muscle and heart. […] For each drug a total 72 mice were required (6 mice/time point, 12 time points).

[4] = system: NCI-H460 non-small cell lung cancer xenograft; settings: 550 mg/kg paclitaxel equivalent, IV, q7dx2, compared to Abraxane
From the text: Dosage amounts may be adjusted based on the maximum tolerated dose (MTD) of the pharmaceutical composition.

In the case of CC(=O)O[C@H]1C(=O)[C@@]2(C)[C@H]([C@H](OC(=O)c3ccccc3)[C@]3(O)C[C@H](OC(=O)[C@H](O)[C@@H](NC(=O)c4ccccc4)c4ccccc4)C(C)=C1C3(C)C)[C@]1(OC(C)=O)CO[C@@H]1C[C@@H]2O [PTX, Paclitaxel], the “T1/2 Terminal” value [1] is reported as 51 h, the “detected in the feces” value [2] is reported as “approximately 72%” and the “amount retained in kidney” value [3] is reported as “less than 2 μg/g”. For the same compound, the “amount retained in liver” value [3] was “less than 2 μg/g”, the “amount retained in lung” value [3] was “less than 2 μg/g” and the “amount retained in spleen” value [3] was “less than 2 μg/g”.

For “poly-(gamma-L-glutamyl glutamine)-paclitaxel [PGGA70K-PTX35]”, the “tumor volume compared to Abraxane” value (B16 melanoma) was “significantly reduced tumor volume” and the “% TGD (tumor growth delay)” value [4] was 136%.
